# pIC50: −log10 of the molar value.
# How the values were obtained:
# [1] = molecular target: T1, human JAK1 (Homo sapiens, UniProt P23458); assay: JAK1 inhibition assay (polyGT substrate / Ulight-JAK1 peptide); format: biochemical; settings: recombinant human JAK1 catalytic domain; polyGT or Ulight-JAK1 peptide assay
# T1 construct: catalytic domain, amino acids 866-1154; catalog number PV4774; purchased Invitrogen PV4774
# Procedure, shortened: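 Two formats. PolyGT radiometric: 45 min at 30 °C, stopped with phosphoric acid, counted as cpm. Ulight-JAK1 peptide: 60 min at room temperature, stopped with Eu-anti-phosphotyrosine/EDTA, read as RFU. Percent inhibition normalised to vehicle and 10 μM staurosporine.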
# [2] = molecular target: T2, human JAK2 (Homo sapiens, UniProt O60674); assay: JAK2 inhibition assay (polyGT substrate / Ulight-JAK1 peptide); format: biochemical; settings: recombinant human JAK2 catalytic domain; polyGT or Ulight-JAK1 peptide assay
# T2 construct: catalytic domain (amino acids 808-1132; catalog number PV4210); GST; purchased Invitrogen PV4210
# Procedure, shortened: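 Radiometric: 0.025 mU JAK2 with 2.5 μg polyGT, 1 μM ATP plus ^33P-ATP in MOPS pH 7.5 buffer, 1% DMSO, 90 min at 30° C.; filter counting. Alternative TR-FRET format with Ulight-JAK1 peptide, 60 min at room temperature, Eu-anti-phosphotyrosine detection.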
# [3] = molecular target: T3, human JAK3 (Homo sapiens, UniProt P52333); assay: JAK3 inhibition assay; format: biochemical; settings: recombinant human JAK3 catalytic domain; polyGT substrate
# T3 construct: catalytic domain (amino acids 781-1124; catalog number PV3855); purchased Invitrogen PV3855
# Procedure, shortened: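 Radiometric kinase assay: 0.5 ng JAK3 with 2.5 μg polyGT in Tris pH 7.5/MgCl2 buffer, 1 μM ATP plus 0.25 μCi 33P-γ-ATP, 1% DMSO, 45 min at 30 °C, stopped with phosphoric acid.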
# [4] = test system: BA/F3 cell line; assay: BA/F3 viability assay; settings: Mus musculus, BaF3, 48 h, read-out: BA/F3 IC50
# [5] = molecular target: T4, human TYK2 (Homo sapiens, UniProt P29597); assay: TYK2 inhibition assay; format: biochemical; settings: recombinant human TYK2 catalytic domain, polyGT substrate
# T4 construct: catalytic domain (amino acids 871-1187; catalog number 08-147); purchased Carna Biosciences 08-147
# T4 sequence (P29597 871-1187): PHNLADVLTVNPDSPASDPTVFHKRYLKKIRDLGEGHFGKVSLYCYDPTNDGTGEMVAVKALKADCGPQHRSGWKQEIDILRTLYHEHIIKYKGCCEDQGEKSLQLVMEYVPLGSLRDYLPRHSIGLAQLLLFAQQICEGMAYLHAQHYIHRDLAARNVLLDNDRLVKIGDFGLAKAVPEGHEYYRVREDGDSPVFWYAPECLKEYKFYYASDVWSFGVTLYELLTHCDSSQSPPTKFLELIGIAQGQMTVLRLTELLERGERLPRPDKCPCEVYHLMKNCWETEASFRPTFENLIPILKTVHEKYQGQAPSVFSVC
# Procedure, shortened: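 Radiometric kinase reaction run 90 min at 30 °C, stopped with phosphoric acid, washed and scintillation-counted.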
# [6] = test system: CTLL-2 cell line; assay: CTLL2 viability assay; format: cell-based; settings: Mus musculus, IL-2 dependent CTLL2 viability, 24 h, ATP-lite
# Excerpt: The protocol describes the methods to analyse the activity of compounds on their ability to sustain the IL2-dependent viability of CTLL2.
# Final DMSO concentration was 0.1%.
# T1 sequence (P23458 866-1154): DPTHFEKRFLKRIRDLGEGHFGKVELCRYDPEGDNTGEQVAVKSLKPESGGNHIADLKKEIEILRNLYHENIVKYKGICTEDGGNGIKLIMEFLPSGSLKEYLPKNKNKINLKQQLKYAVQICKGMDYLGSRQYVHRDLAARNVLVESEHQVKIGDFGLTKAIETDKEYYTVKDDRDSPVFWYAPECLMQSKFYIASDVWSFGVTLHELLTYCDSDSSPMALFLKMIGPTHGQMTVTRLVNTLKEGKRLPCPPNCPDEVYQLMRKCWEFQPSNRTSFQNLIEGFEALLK
# T3 sequence (P52333 781-1124): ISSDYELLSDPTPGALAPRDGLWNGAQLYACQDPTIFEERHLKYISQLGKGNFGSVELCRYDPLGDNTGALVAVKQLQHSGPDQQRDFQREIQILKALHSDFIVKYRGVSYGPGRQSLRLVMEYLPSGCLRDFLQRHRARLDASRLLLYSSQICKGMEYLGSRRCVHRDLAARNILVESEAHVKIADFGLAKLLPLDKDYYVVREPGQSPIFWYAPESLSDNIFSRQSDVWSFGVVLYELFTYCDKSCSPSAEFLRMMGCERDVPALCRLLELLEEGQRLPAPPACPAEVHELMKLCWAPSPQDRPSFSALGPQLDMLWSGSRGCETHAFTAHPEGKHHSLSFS
# T2 sequence (O60674 808-1132): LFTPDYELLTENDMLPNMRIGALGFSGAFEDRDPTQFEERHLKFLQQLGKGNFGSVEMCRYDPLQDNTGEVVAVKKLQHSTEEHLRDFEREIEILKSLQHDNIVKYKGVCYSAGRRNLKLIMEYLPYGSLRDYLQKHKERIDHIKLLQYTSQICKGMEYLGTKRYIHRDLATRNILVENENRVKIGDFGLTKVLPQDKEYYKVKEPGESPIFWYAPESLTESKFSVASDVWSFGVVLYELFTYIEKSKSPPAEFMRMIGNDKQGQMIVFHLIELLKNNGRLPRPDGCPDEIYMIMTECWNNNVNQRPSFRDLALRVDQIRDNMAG
pIC50 [1],pIC50 [2],pIC50 [3],pIC50 [4],pIC50 [5],Compound,pIC50 [6]
7.00 to 11.00,6.30 to 7.00,< 6.00,< 5.30,6.30 to 7.00,"CCc1cc(C2CN(C(=O)COC)C2)ccc1N(C)c1cc2c(cn1)ncn2C [Compound 350, 1-(3-{3-Ethyl-4-[methyl-(1-methyl-1H-imidazo[4,5-c]pyridin-6-yl)-amino]-phenyl}-azetidin-1-yl)-2-methoxy-ethanone]",< 6.00
7.00 to 11.00,7.00 to 11.00,7.00 to 11.00,5.30 to 6.00,6.30 to 7.00,"CCc1cc(C2(COS(=O)(=O)C(F)F)CCNC2)ccc1N(C)c1cc2c(cn1)ncn2C (stereo not drawn) [Compound 398, difluoro-methanesulfonic acid 3-{3-ethyl-4-[methyl-(1-methyl-1H-imidazo[4,5-c]pyridin-6-yl)-amino]-phenyl}-pyrrolidin-3-ylmethyl ester]",< 6.00
7.00 to 11.00,7.00 to 11.00,7.00 to 11.00,< 5.30,7.00 to 11.00,"CCc1cc(C(C#N)N2CCN(C(C)=O)CC2)ccc1N(C)c1cc2c(cn1)ncn2C (stereo not drawn) [Compound 396, (4-Acetyl-piperazin-1-yl)-{3-ethyl-4-[methyl-(1-methyl-1H-imidazo[4,5-c]pyridin-6-yl)-amino]phenyl}-acetonitrile]",< 6.00
7.00 to 11.00,7.00 to 11.00,7.00 to 11.00,< 5.30,7.00 to 11.00,"CCc1cc(C(C#N)N2CCOCC2)ccc1N(C)c1cc2c(cn1)ncn2C (stereo not drawn) [Compound 393, {3-Ethyl-4-[methyl-(1-methyl-1H-imidazo[4,5-c]pyridin-6-yl)-amino]-phenyl}-morpholin-4-yl-acetonitrile]",< 6.00

# Second part, the compound before the results:
Compound,pIC50 [1],pIC50 [2],pIC50 [3],pIC50 [4],pIC50 [5],pIC50 [6]
"CCc1cc(CNS(=O)(=O)NC)ccc1N(C)c1cc2c(cn1)ncn2C [Compound 376, Methyl amino-N-{3-Ethyl-4-[methyl-(1-methyl-1H-imidazo[4,5-c]pyridin-6-yl)-amino]-benzyl}-sulfonamide]",7.00 to 11.00,7.00 to 11.00,6.30 to 7.00,5.30 to 6.00,6.30 to 7.00,< 6.00
"CCc1cc(N2CCC(F)(F)C2)ncc1N(C)c1cc2c(cn1)ncn2C [Compound 411, [6-(3,3-Difluoro-pyrrolidin-1-yl)-4-ethyl-pyridin-3-yl]-methyl-(1-methyl-1H-imidazo[4,5-c]pyridin-6-yl)-amine]",7.00 to 11.00,7.00 to 11.00,7.00 to 11.00,5.30 to 6.00,7.00 to 11.00,< 6.00
"CCc1cc(C(C#N)N2CCN(S(C)(=O)=O)CC2)ccc1N(C)c1cc2c(cn1)ncn2C (stereo not drawn) [Compound 390, {3-Ethyl-4-[methyl-(1-methyl-1H-imidazo[4,5-c]pyridin-6-yl)-amino]-phenyl}-(4-methanesulfonyl-piperazin-1-yl)-acetonitrile]",7.00 to 11.00,7.00 to 11.00,7.00 to 11.00,< 5.30,7.00 to 11.00,< 6.00
"CCc1cc(C2(C#N)CC2)ccc1N(C)c1cc2c(cn1)ncn2C [Compound 385, 1-{3-Ethyl-4-[methyl-(1-methyl-1H-imidazo[4,5-c]pyridin-6-yl)-amino]-phenyl}-cyclopropanecarbonitrile]",7.00 to 11.00,7.00 to 11.00,7.00 to 11.00,5.30 to 6.00,7.00 to 11.00,< 6.00
"CCc1cc(CNC(=O)C2CCC(F)(F)CC2)ccc1N(C)c1cc2c(cn1)ncn2C [Compound 377, 4,4-Difluoro-cyclohexanecarboxylic acid 3-ethyl-4-[methyl-(1-methyl-1H-imidazo[4,5-c]pyridin-6-yl)-amino]-benzylamide]",7.00 to 11.00,< 6.00,< 6.00,< 5.30,< 6.00,< 6.00
"CCc1cc(C2CCN(S(C)(=O)=O)CC2)ncc1N(C)c1cc2c(cn1)ncn2C [Compound 383, (4-Ethyl-1′-methanesulfonyl-1′,2′,3′,4′,5′,6′-hexahydro-[2,4′]bipyridinyl-5-yl)-methyl-(1-methyl-1H-imidazo[4,5-c]pyridin-6-yl)-amine]",7.00 to 11.00,6.30 to 7.00,6.00 to 6.30,5.30 to 6.00,6.00 to 6.30,< 6.00

# Source: patent US20130217664A1, “NOVEL COMPOUNDS USEFUL FOR THE TREATMENT OF DEGENERATIVE AND INFLAMMATORY DISEASES” (priority 2012, published 2013)
